# Results taken from patent US9370522B2, “Heterocyclic compounds for the inhibition of PASK” (BioEnergenix, LLC, priority 2009, dated 2016).
# How the values were obtained:
# hPASK Kinase Domain = molecular target: T1, hPASK Kinase Domain (Homo sapiens, UniProt Q96RG2); assay: Biochemical Assay for hPASK Activity (Kinase-Glo Luminescent Kinase Assay), kinase domain
# T1 construct: made in house; host or cells: insect cells
# Description: (§1) The assay for purified hPASK activity utilizes the Kinase-Glo Luminescent Kinase Assay (Promega), which quantifies the amount of ATP remaining in solution following kinase reaction. The assay is carried out in a 96-well plate format and is performed by adding a volume of Kinase-Glo Reagent (Promega, catalog #V3771) equal to the volume of solution in the well of a completed kinase reaction. Kinase-Glo reagent contains Luciferase and its substrate. After addition to a kinase reaction it allows to measure luminescence. The amount of ATP left in solution at the time of Kinase-Glo Plus addition is directly proportional to the luminescence that is measured in each well, and inversely correlated with kinase activity.
# (§2) Purified hPASK from insect cells (0.02 μg) is added to a 50 μL reaction mix containing 40 mM Hepes (pH 7.0), 100 mM KCl, 5 mM MgCl2, 1 mM DTT and 1 ug of MBP protein. Inhibitory compounds are then added and the mixture is incubated for 10 min at 25° C. before adding 5 μL of ATP (at desired concentration). The reaction is allowed to proceed at 25° C. for 1 hour before adding 50 μL of Kinase-Glo reagent. The luminescence is measured as soon as 10 minutes after Kinase-Glo reagent is added.
# hPASK (Full Length) = molecular target: T2, hPASK (Full Length) (Homo sapiens, UniProt Q96RG2); assay: Biochemical Assay for hPASK Activity (Kinase-Glo Luminescent Kinase Assay), full length; conditions: purified hPASK from insect cells, MBP substrate
# T2 construct: made in house; host or cells: insect cells
# Description: as §1, §2
# [1] = molecular target: T3, PASK (Invitrogen) Kinase Domain (Homo sapiens, UniProt Q96RG2); assay: PASK TR-FRET assay (Ulight-peptide, Eu chelate antibody); type: biochemical; conditions: TR-FRET 665 nm/615 nm, 2 hours at 25° C.
# T3 construct: IC50 Kinase Domain; purchased Invitrogen
# Text: The aim of the FRET assay is to determine the inhibition potential of test compounds on targeted kinase. This assay platform provides a homogenous screening method for measuring kinase activity by quantitating the amount of phospho-substrate in solution following a kinase reaction.
# In the presence of kinase and ATP, the Ulight-peptide is phosphorylated and captured by an anti-phospho-substrate antibody, which brings the Eu chelate donor and Ulight acceptor dyes into close proximity. Upon excitation at 340 nm, the Eu chelate transfers its energy to the Ulight dye, resulting in a fluorescent light emission at 665 nm.
# Titration of Kinase at 1 mM ATP was achieved via the following protocol. After making serial three-fold dilutions of PASK (Invitrogen) in reaction buffer across the plate; 5 μl of kinase dilution and 5 μl substrate/ATP mix were added to the wells of the white Optiplate-384 (PerkinElmer). The contents of the plate were and incubated at RT for 1 h. The reaction was stopped by adding 5 μl of stop solution to each test well followed by mixing and incubation at RT for 10 minutes. 5 μl of detection mix (detection antibody diluted in detection buffer) was added; the contents of the plate were mixed and then incubated in the dark for 1 hour at RT. The signal was recorded at TR-FRET mode (665 nm/615 nm). The results were graphed to calculate the EC50.
# Titration of ATP at the EC50 Concentration of Kinase to determine ATP Km,app. was performed using the following method. After making serial dilutions of ATP (Invitrogen), 5 μl of ATP dilution and 5 μl substrate/kinase mix were added to the wells of the white Optiplate-384 (PerkinElmer). The contents of the plate were and incubated at RT for 1 h. The reaction was stopped by adding 5 μl of stop solution to each test well followed by mixing and incubation at RT for 10 minutes. 5 μl of detection mix (detection antibody diluted in detection buffer) was added; the contents of the plate were mixed and then incubated in the dark for 1 hour at RT. The signal was recorded at TR-FRET mode (665 nm/615 nm). The results were graphed to calculate the EC50 as the ATP Km,app.
# Compound screening was done via the following method. 10 mM stock solution of test compound in DMSO was prepared by dissolving test compound in DMSO at RT for 1 hour, and then sonicating at 100% output for 8 minutes. If compound is not soluble under this condition, it was diluted to 3 mM. Kinase reaction buffer was prepared containing 10 mM MgCl2, 50 mM HEPES, 1 mM EGTA, 0.01% TWEEN-20, 2 mM DTT. […] The signal was recorded at TR-FRET mode (665 nm/615 nm).
# PASK = molecular target: T4, PASK (UniProt #Q96RG2; human recombinant N-terminal GST tagged construct, residues 879-1323) (Homo sapiens, UniProt Q96RG2); assay: 33P-ATP radiometric PASK kinase assay (P81 phosphocellulose, scintillation counting); type: biochemical; conditions: Table 2, Myelin Basic Protein 20 μM, 120 min room temperature, average of all trials, read-out: IC50 Kinase Domain
# T4 construct: N-terminal GST tagged construct, residues 879-1323; GST (N); made in house; host or cells: insect cells
# Description: Purified PASK (UniProt #Q96RG2; human recombinant N-terminal GST tagged construct, residues 879-1323) from insect cells (final concentration 5 nM) is added to freshly prepared Base Reaction Buffer containing 20 mM Hepes (pH 7.5), 10 mM MgCl2, 1 mM EGTA, 0.02% Brij35, 0.02 mg/ml BSA, 0.1 mM Na3VO4, 2 mM DTT, 1% DMSO and Myelin Basic Protein (20 μM final). Test compounds in DMSO are then added and the mixture, followed by delivery of ^33P-ATP (specific activity 0.01 μCi/μl final) to initiate the reaction. The kinase reaction is incubated for 120 min at room temperature. The entire reaction mixture is washed through onto a P81 Phosphocellulose paper and washed three times for 10 minutes in 75 mM phosphoric acid and once in methanol prior to drying and scintillation counting. When the assay was repeated for a given compound, the activity data is based on the average of all trials.
# [2] = Table 1, second part (Examples 33-59)
# T3 sequence (Q96RG2 999-1251 limits assumed): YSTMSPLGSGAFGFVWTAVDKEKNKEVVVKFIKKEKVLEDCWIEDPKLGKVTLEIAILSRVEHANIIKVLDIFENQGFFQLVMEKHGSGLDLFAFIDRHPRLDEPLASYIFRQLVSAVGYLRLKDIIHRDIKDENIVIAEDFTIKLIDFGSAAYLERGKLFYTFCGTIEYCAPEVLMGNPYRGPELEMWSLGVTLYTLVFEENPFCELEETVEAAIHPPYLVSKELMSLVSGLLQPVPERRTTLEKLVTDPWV
# T1 sequence (Q96RG2 999-1251 limits assumed): as above
# T2 sequence (Q96RG2 whole entry): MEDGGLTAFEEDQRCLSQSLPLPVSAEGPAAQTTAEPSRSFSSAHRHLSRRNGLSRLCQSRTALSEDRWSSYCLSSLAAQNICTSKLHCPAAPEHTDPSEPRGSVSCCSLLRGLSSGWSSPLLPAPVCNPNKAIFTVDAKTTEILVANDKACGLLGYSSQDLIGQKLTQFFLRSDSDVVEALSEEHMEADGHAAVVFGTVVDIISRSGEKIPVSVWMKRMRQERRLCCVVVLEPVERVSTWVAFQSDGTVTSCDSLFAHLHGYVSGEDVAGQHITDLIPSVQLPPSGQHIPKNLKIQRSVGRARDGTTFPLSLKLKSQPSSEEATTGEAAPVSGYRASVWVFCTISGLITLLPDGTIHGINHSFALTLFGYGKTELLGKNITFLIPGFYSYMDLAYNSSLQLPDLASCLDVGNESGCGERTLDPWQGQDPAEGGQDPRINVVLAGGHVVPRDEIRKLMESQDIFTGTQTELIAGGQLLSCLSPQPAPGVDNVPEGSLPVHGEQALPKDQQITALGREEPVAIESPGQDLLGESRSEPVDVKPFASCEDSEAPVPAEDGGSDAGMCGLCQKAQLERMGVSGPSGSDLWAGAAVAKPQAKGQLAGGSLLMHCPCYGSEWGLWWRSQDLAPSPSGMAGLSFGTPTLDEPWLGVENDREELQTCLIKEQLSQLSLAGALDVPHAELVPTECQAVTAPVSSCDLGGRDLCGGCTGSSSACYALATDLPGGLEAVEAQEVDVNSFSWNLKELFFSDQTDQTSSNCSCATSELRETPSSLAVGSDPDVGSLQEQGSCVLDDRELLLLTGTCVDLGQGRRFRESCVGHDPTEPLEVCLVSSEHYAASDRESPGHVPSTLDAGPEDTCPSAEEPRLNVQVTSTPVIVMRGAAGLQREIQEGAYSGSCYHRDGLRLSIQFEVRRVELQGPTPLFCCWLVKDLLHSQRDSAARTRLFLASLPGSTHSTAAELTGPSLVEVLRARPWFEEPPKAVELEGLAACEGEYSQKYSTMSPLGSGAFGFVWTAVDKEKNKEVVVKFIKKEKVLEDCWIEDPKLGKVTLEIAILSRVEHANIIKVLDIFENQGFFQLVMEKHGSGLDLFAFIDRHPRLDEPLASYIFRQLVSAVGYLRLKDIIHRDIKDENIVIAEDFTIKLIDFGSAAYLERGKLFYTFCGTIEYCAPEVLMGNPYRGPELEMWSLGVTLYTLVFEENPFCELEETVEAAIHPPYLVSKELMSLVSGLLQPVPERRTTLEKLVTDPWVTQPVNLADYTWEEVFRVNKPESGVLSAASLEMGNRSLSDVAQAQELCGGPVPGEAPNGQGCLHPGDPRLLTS
# T4 sequence (Q96RG2 879-1323, stated change not applied): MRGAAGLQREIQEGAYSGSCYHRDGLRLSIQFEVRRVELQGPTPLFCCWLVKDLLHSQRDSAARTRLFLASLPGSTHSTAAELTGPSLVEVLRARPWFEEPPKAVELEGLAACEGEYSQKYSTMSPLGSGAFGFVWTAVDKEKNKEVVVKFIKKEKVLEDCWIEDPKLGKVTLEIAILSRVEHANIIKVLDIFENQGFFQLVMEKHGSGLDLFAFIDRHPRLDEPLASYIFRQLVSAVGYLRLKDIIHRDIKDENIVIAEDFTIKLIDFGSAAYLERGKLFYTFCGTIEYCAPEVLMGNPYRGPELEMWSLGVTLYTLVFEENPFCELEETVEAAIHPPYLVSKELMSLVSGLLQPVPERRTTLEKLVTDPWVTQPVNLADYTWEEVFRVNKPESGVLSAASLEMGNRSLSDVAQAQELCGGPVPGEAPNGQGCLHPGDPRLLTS
Structure (SMILES),"IC50 (hPASK Kinase Domain; Table 1, first part) [µM]",IC50 (hPASK (Full Length)) [µM],IC50 [1] [µM],IC50 (hPASK Kinase Domain; [2]) [µM],IC50 (PASK) [µM]
"O=C(O)c1ccc2nc(-c3ccco3)c(-c3ccco3)nc2c1 [Example 9, 2,3-Di-(2-furyl)quinoxaline-6-carboxylic acid]",≤ 10,≤ 10,,,
"O=C(O)c1ccc2nc(-c3cccc(O)c3)c(-c3cccc(O)c3)nc2c1 [Example 1, 2,3-Di-(3-hydroxyphenyl)quinoxaline-6-carboxylic acid]",≤ 10,≤ 10,,,
"Cc1nc2cc(C(=O)O)c(O)cc2nc1-c1ccccc1 [Example 3, 7-Hydroxy-2-phenyl-3-methylquinoxaline-6-carboxylic acid]",≥ 10,≥ 10,,,
"COc1ccc(-c2nc3cc(C(=O)O)ccc3cc2-c2ccccc2)cc1 [Example 60, 2-(4-Methoxyphenyl)-3-phenylquinoline-7-carboxylic acid]",,,≤ 10,,
"COc1ccc(-c2nc3ccc(C(=O)O)cc3nc2-c2ccc(OC)c(OC)c2)cc1OC [Example 4, 2,3-Di-(3,4-dimethoxyphenyl)quinoxaline-6-carboxylic acid]",≥ 10,≥ 10,,,
"Cc1ccc(-c2nc3ccc(C(=O)O)cc3nc2-c2ccc(C)cc2)cc1 [Example 7, 2,3-Di-(4-methylphenyl)quinoxaline-6-carboxylic acid]",≥ 10,≤ 10,,,
"COc1ccc(-c2cc3cc(C(=O)O)ccc3nc2-c2ccc(OC)cc2)cc1 [Example 61, 2,3-Bis(4-methoxyphenyl)quinoline-6-carboxylic acid]",,,≤ 10,,
"O=C(O)c1cc2nc(-c3ccc4c(c3)OCO4)c(-c3ccc4c(c3)OCO4)nc2cc1O [Example 10, 2,3-Di-(3,4-methylenedioxyphenyl)quinoxaline-7-hydroxy-6-carboxylic acid]",≤ 10,≤ 10,,,
"O=C(O)c1ccc2nc(-c3ccc(F)cc3)c(-c3ccc(F)cc3)nc2c1 [Example 5, 2,3-Di-(4-fluorophenyl)quinoxaline-6-carboxylic acid]",≥ 10,≤ 10,,,
"CCOc1ccc(-c2nc3ccc(C(=O)O)cc3nc2-c2ccc(OCC)cc2)cc1 [Example 11, 2,3-Di-(4-ethoxyphenyl)quinoxaline-6-carboxylic acid]",≥ 10,≥ 10,,,
"CN(c1ccc(-c2nc3cc(C(=O)O)ccc3nc2-c2ccccc2)cc1)S(C)(=O)=O [Example 51, 3-(4-(N-Methylmethylsulfonamido)phenyl)-2-phenylquinoxaline-6-carboxylic acid]",,,,≤ 10,
"CC(C)S(=O)(=O)Nc1ccc(-c2nc3cc(C(=O)O)ccc3nc2-c2ccccc2)cc1 [Example 52, 3-(4-(Isopropylsulfonamido)phenyl)-2-phenylquinoxaline-6-carboxylic acid]",,,≤ 10,≤ 10,
"CC(C)(C)c1ccc(-c2nc3cc(C(=O)O)ccc3nc2-c2ccccc2)cc1 [Example 33, 3-(4-tert-Butylphenyl)-2-phenylquinoxaline-6-carboxylic acid]",,,≤ 10,≤ 10,≤ 10
"COc1ccc(-c2nc3ccc(S(=O)(=O)N4CCOCC4)cc3nc2-c2ccc(OC)cc2)cc1 [Example 55, 2,3-Bis(4-methoxyphenyl)-6-(morpholinosulfonyl)quinoxaline]",,,,≤ 10,
"O=C(O)c1ccc2nc(-c3ccccc3)c(-c3ccccc3)nc2c1 [Example 8, 2,3-Diphenylquinoxaline-6-carboxylic acid]",≤ 10,≤ 10,,,
"O=C(O)c1ccc2nc(-c3ccccc3O)c(-c3ccccc3O)nc2c1 [Example 2, 2,3-Di-(2-hydroxyphenyl)quinoxaline-6-carboxylic acid]",≤ 10,≤ 10,,,
"COc1ccc(-c2nc3cccc(C(=O)O)c3nc2-c2ccc(OC)cc2)cc1 [Example 58, 2,3-Bis(4-methoxyphenyl)quinoxaline-5-carboxylic acid]",,,,≤ 10,
